{"source": "paper PMC3942886", "about": "(Molecular and cellular biochemistry, 2013)", "test_system": "hexokinase (from baker's yeast purchased from Sigma)", "experiment": "pyruvate kinase/lactate dehydrogenase coupled assay, NADH oxidation", "type": "biochemical", "settings": "read-out: Km(glucose); positive control; ATP co-substrate", "data": [{"compound": "OC[C@H]1OC(O)[C@H](O)[C@@H](O)[C@@H]1O", "note": "(stereo partly shown) [glucose]", "values": [{"measurement": "Km", "result": "~300", "unit": "µM"}]}]}
